Reference: patent US20110124032A1, “Methods and Compositions for Treating Carcinoma Stem Cells” (priority 2008, published 2011)

Columns and labels:
[1] = test system: Thy1+CD24+Lin− CSC-enriched cells from MMTV-Wnt-1 breast tumors; test: In vitro colony assay (clonogenic survival), CSC-enriched cells; format: cell-based, mouse
Description: Given the overexpression of genes involved in GSH synthesis by CSCs, we wished to assess the sensitivity of these cells to ROS elevation via pharmacologic depletion of GSH. Exposure of Thy1^+CD24^+Lin″ CSC-enriched cells to Buthionine Sulfoximine (BSO), which inhibits glutamate-cysteine ligase, decreased their colony forming ability by approximately three fold (FIG. 4d). Finally, we asked if GSH depletion would radiosensitize CSCs. […] The mechanism leading to low ROS levels in some CSCs appears to be at least partially due to the increased production of free radical scavengers. […] The low ROS subset found in the various stem cell populations may also represent a quiescent subpopulation. […]
Cells were analyzed, collected by FACS, and injected into recipient mice as described with minor modifications from mouse mammary glands, human breast cancers, human head and neck cancers, and MMTV-Wnt-1 mouse tumors. […] For intracellular ROS analysis, cells were loaded with 10 μM DCF-DA (Invitrogen), incubated at 37° C. for 30 min, and immediately analyzed by flow cytometry. […] DNA damage was evaluated using the single-cell gel electrophoresis assay under alkaline conditions. […] After reverse transcription, genes were pre-amplified (22 cycles) using the same Taqman primers (Applied Biosystems) used for quantification. Products were analyzed using qPCR DynamicArray microfluidic chips (Fluidigm). […]

[2] = test system: “Not Thy1+CD24+” Lin− non-tumorigenic cells (NTCs) from MMTV-Wnt-1 breast tumors; test: In vitro colony assay (clonogenic survival after ionizing radiation), non-tumorigenic cells; format: cell-based, mouse; conditions: 10 mM tempol for 15 minutes prior to irradiation, drug then removed; FIG. 4c
Description: In order to pharmacologically manipulate ROS levels separately in CSCs and NTCs, we employed in vitro culture conditions that allowed both cell populations to produce colonies upon co-culture with irradiated feeder cells. […] When exposed to 2 Gy, a dose commonly administered clinically during daily treatments of breast cancer patients, 2.0-fold+/−0.2 more CSC-enriched colonies survived than NTC colonies. Next, we attempted to radioprotect NTCs by exposing them to the nitroxide antioxidant tempol.
Cells were analyzed, collected by FACS, and injected into recipient mice as described with minor modifications from mouse mammary glands, human breast cancers, human head and neck cancers, and MMTV-Wnt-1 mouse tumors. […] For intracellular ROS analysis, cells were loaded with 10 μM DCF-DA (Invitrogen), incubated at 37° C. for 30 min, and immediately analyzed by flow cytometry. […] DNA damage was evaluated using the single-cell gel electrophoresis assay under alkaline conditions. […] After reverse transcription, genes were pre-amplified (22 cycles) using the same Taqman primers (Applied Biosystems) used for quantification. Products were analyzed using qPCR DynamicArray microfluidic chips (Fluidigm). […] After 24-48 hrs, the media was replaced with serum-free Epicult B, and colonies counted ˜7 days later. […] Levels of significance were determined by Student's t-tests using (=0.05. […]

Structure (SMILES)	Clonogenic survival after ionizing radiation (radiosensitization) ([1]; 1 mM BSO 24 hour pretreatment, removed prior to irradiation, 3 Gy, FIG. 4e)	Decrease in colony forming ability ([1]; 24 hour pre-treatment with 1 mM BSO, no irradiation, FIG. 4d)	Clonogenic survival of NTCs after irradiation (radioprotection) [2]
CCCCS(=N)(=O)CC[C@H](N)C(=O)O (stereo partly drawn) [BSO, L-S,R-Buthionine Sulfoximine]	significant radiosensitization	approximately three	–
CC1(C)CC(O)CC(C)(C)N1[O] [tempol]	–	–	radioprotected NTCs, and resulted in survival levels similar to those seen in the CSC-enriched population
